PubChem BioAssay AID330 (DTP/NCI, 2004)
Where “and” joins values, the source holds several entries; their conditions need not be identical. Equal values may be shown once. Toxic doses and inconclusive results are not listed. Numbered stars: 1 amine (or outer) side, 2 acyl side, 3 side chain; on linkers, the order of the positions; unused ones are H or OH. Bridge positions count the residues as written; N and C are the ends. Square brackets hold non-standard residues; d marks the D form. Peptide text beside a SMILES is read from it. I, II: the chains in the order shown. Actinocin(9to1) = Cc1c2oc3c(C)ccc(C(=O)[*:1])c3nc-2c(C(=O)[*:2])c(N)c1=O; NMeV = CN[CH](C(=O)O)C(C)C; Sar = CNCC(=O)O

System: P388 leukemia ip, CD2F1 mice, survival T/C
Experiment: NCI In Vivo Anticancer Drug Screen. Data for tumor model P388 Leukemia (intraperitoneal) in CD2F1 (CDF1) mice
Settings: endpoint: median survival time, higher = longer survival
In short: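 Mice carrying the transplanted tumor received test compound or vehicle. Survival was recorded in each group, and the value is the treated-group measurement divided by that of the vehicle-treated control group.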

[1] = dose: 100.0 mg/kg/injection, schedule: Q04DX003 (ip), vehicle: saline with Tween-80
[2] = dose: 200.0 mg/kg/injection, schedule: Q04DX003 (ip), vehicle: saline with Tween-80
[3] = dose: 400.0 mg/kg/injection, schedule: Q04DX003 (ip), vehicle: saline with Tween-80
[4] = dose: 50.0 mg/kg/injection, schedule: Q01DX005 (ip), vehicle: Klucel (hydroxypropylcellulose) (HPC)
[5] = dose: 100.0 mg/kg/injection, schedule: Q01DX005 (ip), vehicle: Klucel (hydroxypropylcellulose) (HPC)
[6] = dose: 200.0 mg/kg/injection, schedule: Q01DX005 (ip), vehicle: Klucel (hydroxypropylcellulose) (HPC)
[7] = dose: 50.0 mg/kg/injection, schedule: Q01DX005 (ip), vehicle: saline with Tween-80
[8] = dose: 100.0 mg/kg/injection, schedule: Q01DX005 (ip), vehicle: saline with Tween-80
[9] = dose: 5.0 mg/kg/injection, schedule: Q01DX009 (ip), vehicle: saline with Tween-80
[10] = dose: 10.0 mg/kg/injection, schedule: Q01DX009 (ip), vehicle: saline with Tween-80
[11] = dose: 50.0 mg/kg/injection, schedule: Q01DX009 (ip), vehicle: saline with Tween-80
[12] = dose: 100.0 mg/kg/injection, schedule: Q01DX009 (ip), vehicle: saline with Tween-80
[13] = dose: 100.0 mg/kg/injection, schedule: Q01DX001 (ip), vehicle: Klucel (hydroxypropylcellulose) (HPC)
[14] = dose: 50.0 mg/kg/injection, schedule: Q01DX009 (ip), vehicle: saline
[15] = dose: 100.0 mg/kg/injection, schedule: Q01DX009 (ip), vehicle: saline
[16] = dose: 200.0 mg/kg/injection, schedule: Q01DX009 (ip), vehicle: saline
[17] = dose: 60.0 mg/kg/injection, schedule: Q01DX005 (ip), vehicle: saline
[18] = dose: 120.0 mg/kg/injection, schedule: Q01DX005 (ip), vehicle: saline
[19] = dose: 240.0 mg/kg/injection, schedule: Q01DX005 (ip), vehicle: saline
[20] = dose: 60.0 mg/kg/injection, schedule: Q01DX005 (ip), vehicle: saline with Tween-80
[21] = dose: 120.0 mg/kg/injection, schedule: Q01DX005 (ip), vehicle: saline with Tween-80
[22] = dose: 240.0 mg/kg/injection, schedule: Q01DX005 (ip), vehicle: saline with Tween-80

COc1ccccc1N1C(=O)CC(Sc2ccccc2N)C1=O (centres undefined)
T/C [1]: 104 % of control | T/C [2]: 90 % of control | T/C [3]: 90 % of control

COc1ccn(C2CCCO2)c(=O)n1 (centres undefined)
T/C (dose: 50.0 mg/kg/injection, schedule: Q01DX005 (ip), vehicle: saline): 95 % of control | T/C (dose: 100.0 mg/kg/injection, schedule: Q01DX005 (ip), vehicle: saline): 100 % of control | T/C (dose: 200.0 mg/kg/injection, schedule: Q01DX005 (ip), vehicle: saline): 88 % of control

CC[C@@]1(C(N)=O)CC2C=CC1C2 (some centres undefined)
T/C [4]: 94 % of control | T/C [5]: 90 % of control | T/C [6]: 96 % of control

N#CCCn1ncc(=O)[nH]c1=O
T/C (dose: 50.0 mg/kg/injection, schedule: Q01DX005 (ip), vehicle: water): 101 % of control | T/C (dose: 100.0 mg/kg/injection, schedule: Q01DX005 (ip), vehicle: water): 104 % of control | T/C (dose: 200.0 mg/kg/injection, schedule: Q01DX005 (ip), vehicle: water): 107 % of control

COC(=O)c1c(-c2ccc3c(c2)OCO3)cn(C)c1C
T/C [7]: 97 % of control | T/C [8]: 91 % of control | T/C (dose: 200.0 mg/kg/injection, schedule: Q01DX005 (ip), vehicle: saline with Tween-80): 87 % of control

N#CC1(O)CCCCC1
T/C (dose: 2.5 mg/kg/injection, schedule: Q01DX009 (ip), vehicle: saline with Tween-80): 100 % of control | T/C [9]: 104 % of control | T/C [10]: 104 % of control

CCN1c2ccccc2SC1CC1=C(O)C(CC2Sc3ccccc3N2CC)=C1O (centres undefined)
T/C (dose: 60.0 mg/kg/injection, schedule: Q01DX005 (ip), vehicle: Klucel (hydroxypropylcellulose) (HPC)): 91 % of control | T/C (dose: 120.0 mg/kg/injection, schedule: Q01DX005 (ip), vehicle: Klucel (hydroxypropylcellulose) (HPC)): 96 % of control | T/C (dose: 240.0 mg/kg/injection, schedule: Q01DX005 (ip), vehicle: Klucel (hydroxypropylcellulose) (HPC)): 89 % of control

O=C(O)c1cccc([N+](=O)[O-])c1O
T/C (dose: 50.0 mg/kg/injection, schedule: Q01DX009 (ip), vehicle: Klucel (hydroxypropylcellulose) (HPC)): 102 % of control | T/C (dose: 100.0 mg/kg/injection, schedule: Q01DX009 (ip), vehicle: Klucel (hydroxypropylcellulose) (HPC)): 105 % of control | T/C (dose: 200.0 mg/kg/injection, schedule: Q01DX009 (ip), vehicle: Klucel (hydroxypropylcellulose) (HPC)): 101 % of control | T/C (dose: 400.0 mg/kg/injection, schedule: Q01DX009 (ip), vehicle: Klucel (hydroxypropylcellulose) (HPC)): 100 % of control

CC1=C(CCC(=O)O)c2cc3nc(cc4[nH]c(cc4C)cc4[nH]c(cc1n2)cc4C)C(C)(C)C3CCC(=O)O (centres undefined)
T/C (dose: 3.0 mg/kg/injection, schedule: Q01DX009 (ip), vehicle: Klucel (hydroxypropylcellulose) (HPC)): 97 % of control | T/C (dose: 6.0 mg/kg/injection, schedule: Q01DX009 (ip), vehicle: Klucel (hydroxypropylcellulose) (HPC)): 92 % of control | T/C (dose: 12.0 mg/kg/injection, schedule: Q01DX009 (ip), vehicle: Klucel (hydroxypropylcellulose) (HPC)): 90 % of control | T/C (dose: 24.0 mg/kg/injection, schedule: Q01DX009 (ip), vehicle: Klucel (hydroxypropylcellulose) (HPC)): 87 % of control

Cc1ccc(NC(=O)Oc2cc(C)c(Cl)c(C)c2Cl)c([N+](=O)[O-])c1
T/C [11]: 114 % of control | T/C [12]: 107 % of control

CC1(C)OC2(C=CC(C)([N+](=O)[O-])C=C2)OC1=O (centres undefined)
T/C [4]: 101 % of control | T/C [5]: 94 % of control | T/C [6]: 100 % of control

C(#Cc1c2ccccc2c(C#Cc2ccccc2)c2c(-c3ccccc3)cccc12)c1ccccc1
T/C [7]: 97 % of control | T/C [8]: 87 % of control

O=C1C=CC2(C=C1)CCCCC2
T/C (dose: 50.0 mg/kg/injection, schedule: Q01DX001 (ip), vehicle: Klucel (hydroxypropylcellulose) (HPC)): 91 % of control | T/C [13]: 101 % of control

COc1ccc(/C(Cc2ccccc2)=N/NS(=O)(=O)c2ccc(C)cc2)cc1
T/C [14]: 89 % of control | T/C [15]: 101 % of control | T/C [16]: 98 % of control

C/C(Br)=C(\C(=O)O)S(=O)(=O)O
T/C [9]: 106 % of control | T/C [10]: 97 % of control | T/C (dose: 20.0 mg/kg/injection, schedule: Q01DX009 (ip), vehicle: saline with Tween-80): 99 % of control

O=C1OCc2cc(O)ccc21
T/C [4]: 102 % of control | T/C [5]: 100 % of control | T/C [6]: 104 % of control

CC1CCC(C(C)(C)c2ccccc2)CC1OC(=O)/C=C/CC(C)(C)CC=C1C2CCC1N(C(=O)OCC(Cl)(Cl)Cl)N2C(=O)OCC(Cl)(Cl)Cl (centres undefined)
T/C (dose: 25.0 mg/kg/injection, schedule: Q01DX005 (ip), vehicle: Klucel (hydroxypropylcellulose) (HPC)): 89 % of control | T/C [4]: 89 % of control

O=C(NO)/C(CC(=O)c1ccccc1O)=N\O
T/C [17]: 100 % of control | T/C [18]: 111 % of control | T/C [19]: 103 % of control

CN(C)CC(Cl)CCl (centres undefined)
T/C (dose: 50.0 mg/kg/injection, schedule: Q04DX003 (ip), vehicle: saline): 109 % of control | T/C (dose: 100.0 mg/kg/injection, schedule: Q04DX003 (ip), vehicle: saline): 109 % of control | T/C [16]: 195 % of control

CCOP(=O)(Nc1ccc(OC)cc1)OCC
T/C [14]: 103 % of control | T/C [15]: 108 % of control | T/C [16]: 111 % of control

CCOC(=O)/C=C/N=[N+]=[N-]
T/C [20]: 102 % of control | T/C [21]: 105 % of control | T/C [22]: 106 % of control

Cc1c2oc3c(C)ccc(C(=O)NC4C(=O)NC(C(C)C)C(=O)N5CCCC5C(=O)N(C)CC(=O)N(C)C(C(C)C)C(=O)OC4C)c3nc-2c(C(=O)NC2C(=O)NC(C(C)C)C(=O)N3CCCC3C(=O)N(C)CC(=O)N(C)C(C(C)C)C(=O)OC2C)c(N)c1=O (centres undefined) (I: TVP[Sar][NMeV] / II: TVP[Sar][NMeV]; ester I:1-I:C, II:1-II:C; linker I:N-II:N via Actinocin(9to1); configuration not given here)
T/C (dose: 0.1 mg/kg/injection, schedule: Q01DX009 (ip), vehicle: distilled water + Tween-80): 178 % of control | T/C (dose: 0.2 mg/kg/injection, schedule: Q01DX009 (ip), vehicle: distilled water + Tween-80): 190 % of control | T/C (dose: 0.2 mg/kg/injection, schedule: Q01DX009 (ip), vehicle: water): 151 % of control | T/C (dose: 0.4 mg/kg/injection, schedule: Q01DX009 (ip), vehicle: distilled water + Tween-80): 207 % of control | T/C (dose: 0.4 mg/kg/injection, schedule: Q01DX009 (ip), vehicle: water): 174 % of control

Cc1ccc(S(=O)(=O)C(Cc2cc(Cl)cc(Cl)c2O)C(=O)c2ccccc2)cc1 (centres undefined)
T/C [4]: 101 % of control | T/C [5]: 90 % of control | T/C [6]: 92 % of control

CC1=CN2C(c3cccc([N+](=O)[O-])c3)=NON(c3ccc(C)cn3)C2C=C1 (centres undefined)
T/C [20]: 87 % of control | T/C [21]: 86 % of control | T/C [22]: 92 % of control

NC(=O)c1coc2c1C(=O)c1ccc3ccccc3c1CC2
T/C [20]: 102 % of control | T/C [21]: 102 % of control | T/C [22]: 108 % of control

CC1(C)COCN1COC1CCCCC1
T/C (dose: 25.0 mg/kg/injection, schedule: Q01DX009 (ip), vehicle: saline): 120 % of control

ClCCN(CCCl)c1ccc(/C=N/Nc2ccc3ccccc3n2)cc1
T/C [1]: 110 % of control | T/C [2]: 109 % of control | T/C [3]: 106 % of control

C=CCN(CC=C)C1C(O)CCOC1OC (centres undefined)
T/C [17]: 109 % of control and 101 % of control | T/C [18]: 107 % of control and 103 % of control | T/C [19]: 109 % of control and 102 % of control

Cc1ccc(S(=O)(=O)N/N=C/c2c(Cl)nc3sccn23)cc1
T/C [13]: 111 % of control | T/C (dose: 200.0 mg/kg/injection, schedule: Q01DX001 (ip), vehicle: Klucel (hydroxypropylcellulose) (HPC)): 108 % of control | T/C (dose: 400.0 mg/kg/injection, schedule: Q01DX001 (ip), vehicle: Klucel (hydroxypropylcellulose) (HPC)): 111 % of control
